# From ChEMBL document CHEMBL3392989 (Bioorg Med Chem Lett, 2015)
# Calls of active or inactive are those of the source. The calls are words filed in the database; no cut-off is given here.
# Assays:
# [1] = biological target: Acetylcholinesterase (Electrophorus electricus, UniProt O42275)
# Description: Inhibition of electric eel AChE pre-incubated for 20 mins before acetylcholine iodide substrate addition by Ellman's assay
# [2] = biological target: Beta-secretase 1 (Homo sapiens) (UniProt P56817); test: Inhibition of BACE1 (unknown origin) at 10 uM using ([Asn670, Lue671]-Amyloid beta/A4 precursor protein 770 fragment 667-676-(2,4dinitrophenyl) Lys-Arg-Arg amide trifluoroacetate salt substrate incubated for 2 hrs by FRET assay
# Chain of Beta-secretase 1 (Homo sapiens) (P56817 whole entry, the tested form may be a part): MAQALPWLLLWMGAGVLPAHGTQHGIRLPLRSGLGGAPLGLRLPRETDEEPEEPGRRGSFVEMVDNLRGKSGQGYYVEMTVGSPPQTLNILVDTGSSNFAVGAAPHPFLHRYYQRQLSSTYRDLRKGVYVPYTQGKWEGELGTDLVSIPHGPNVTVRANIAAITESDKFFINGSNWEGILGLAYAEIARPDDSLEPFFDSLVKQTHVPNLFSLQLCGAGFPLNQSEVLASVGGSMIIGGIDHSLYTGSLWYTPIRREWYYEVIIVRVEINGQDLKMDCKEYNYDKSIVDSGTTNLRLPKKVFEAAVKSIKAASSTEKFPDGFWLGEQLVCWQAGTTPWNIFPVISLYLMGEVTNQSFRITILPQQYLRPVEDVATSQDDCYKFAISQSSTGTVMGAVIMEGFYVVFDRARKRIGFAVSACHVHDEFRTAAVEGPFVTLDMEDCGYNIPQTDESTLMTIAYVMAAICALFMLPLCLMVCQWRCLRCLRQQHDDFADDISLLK
# [3] = biological target: Cholinesterase (Equus caballus, UniProt P81908); test: Inhibition of horse serum BuChE pre-incubated for 20 mins before […] substrate addition by Ellman's assay
# Chain of Cholinesterase (P81908 whole entry): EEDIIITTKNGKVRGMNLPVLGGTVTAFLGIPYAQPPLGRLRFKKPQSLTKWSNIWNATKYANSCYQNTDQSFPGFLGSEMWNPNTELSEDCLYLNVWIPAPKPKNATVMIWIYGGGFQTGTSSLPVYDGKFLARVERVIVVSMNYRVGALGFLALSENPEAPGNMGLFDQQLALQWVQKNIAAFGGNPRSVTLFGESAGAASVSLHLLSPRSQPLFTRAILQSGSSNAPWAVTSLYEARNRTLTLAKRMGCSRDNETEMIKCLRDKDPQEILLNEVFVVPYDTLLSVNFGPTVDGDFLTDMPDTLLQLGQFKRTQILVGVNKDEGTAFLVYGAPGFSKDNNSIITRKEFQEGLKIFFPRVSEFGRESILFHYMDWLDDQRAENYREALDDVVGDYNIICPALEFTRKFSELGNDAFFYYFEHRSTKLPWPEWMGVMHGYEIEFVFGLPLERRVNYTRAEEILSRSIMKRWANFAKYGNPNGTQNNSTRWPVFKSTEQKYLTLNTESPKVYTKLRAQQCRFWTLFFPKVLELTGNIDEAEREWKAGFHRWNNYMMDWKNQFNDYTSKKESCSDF
# [4] = biological target: Amyloid-beta precursor protein (Homo sapiens) (UniProt P05067); test: Inhibition of Amyloid beta (1 to 42) (unknown origin) self aggregation at 50 uM pre-incubated for 24 hrs by Thioflavin T-based fluorometric assay
# Chain of Amyloid-beta precursor protein (Homo sapiens) (P05067 whole entry): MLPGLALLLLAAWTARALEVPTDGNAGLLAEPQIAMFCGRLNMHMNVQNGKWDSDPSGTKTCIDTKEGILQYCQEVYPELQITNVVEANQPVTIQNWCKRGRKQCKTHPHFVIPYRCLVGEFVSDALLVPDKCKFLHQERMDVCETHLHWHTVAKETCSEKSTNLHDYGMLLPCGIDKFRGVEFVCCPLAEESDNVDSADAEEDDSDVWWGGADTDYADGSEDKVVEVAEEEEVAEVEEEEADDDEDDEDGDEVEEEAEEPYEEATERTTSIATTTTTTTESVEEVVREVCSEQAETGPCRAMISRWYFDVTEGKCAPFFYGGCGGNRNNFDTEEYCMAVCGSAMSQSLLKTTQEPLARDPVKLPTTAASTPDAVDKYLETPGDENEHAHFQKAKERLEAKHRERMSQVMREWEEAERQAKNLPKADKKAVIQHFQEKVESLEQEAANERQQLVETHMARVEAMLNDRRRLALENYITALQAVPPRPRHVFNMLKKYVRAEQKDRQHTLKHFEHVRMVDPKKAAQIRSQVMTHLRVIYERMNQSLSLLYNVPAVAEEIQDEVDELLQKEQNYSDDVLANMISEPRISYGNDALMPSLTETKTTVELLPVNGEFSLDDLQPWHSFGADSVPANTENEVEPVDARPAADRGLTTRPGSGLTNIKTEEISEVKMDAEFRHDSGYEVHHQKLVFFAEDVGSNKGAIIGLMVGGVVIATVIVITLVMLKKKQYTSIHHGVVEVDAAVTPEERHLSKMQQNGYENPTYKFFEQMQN
# [5] = Metal chelating activity assessed as copper chelation activity by measuring barhochromic shift at 40 uM using CuCl2 UV-vis spectroscopy; format: physicochemical
# [6] = biological target: Amyloid-beta precursor protein (Homo sapiens) (UniProt P05067); test: Inhibition of Amyloid beta (1 to 42) (unknown origin) self aggregation at 5 uM pre-incubated for 24 hrs by Thioflavin T-based fluorometric assay
# [7] = test system: HT-22; test: Cytotoxicity against mouse HT22 cells assessed as reduction in cell viability at 100 uM after 24 hrs by MTT assay; format: cell-based; details: ht-22, 24 h
# [8] = test system: HT-22; test: Cytoprotective activity in mouse HT22 cells assessed as reduction in glutamate-induced cytotoxicity at 10 uM pre-incubated for 30 mins before incubation with glutamate for 24 hrs by MTT assay; format: functional, cell-based
# [9] = test system: HT-22; test: Cytoprotective activity in mouse HT22 cells assessed as reduction in glutamate-induced cytotoxicity at 0.3 to 10 uM pre-incubated for 30 mins before incubation with glutamate for 24 hrs by MTT assay; format: functional, cell-based
# [10] = test system: HT-22; test: Cytotoxicity against mouse HT22 cells assessed as reduction in cell viability at 10 to 100 uM after 24 hrs by MTT assay; format: cell-based; details: ht-22, 24 h
# [11] = test system: HT-22; test: Cytoprotective activity in mouse HT22 cells assessed as reduction in glutamate-induced cytotoxicity at 3 uM pre-incubated for 30 mins before incubation with glutamate for 24 hrs by MTT assay; format: functional, cell-based
# [12] = test system: HT-22; test: Cytotoxicity against mouse HT22 cells assessed as reduction in cell viability at 30 to 100 uM after 24 hrs by MTT assay; format: cell-based; details: ht-22, 24 h
# [13] = test system: HT-22; test: Cytotoxicity against mouse HT22 cells assessed as reduction in cell viability at 10 uM after 24 hrs by MTT assay; format: cell-based; details: ht-22, 24 h
# Chain of Acetylcholinesterase (O42275 whole entry, the tested form may be a part): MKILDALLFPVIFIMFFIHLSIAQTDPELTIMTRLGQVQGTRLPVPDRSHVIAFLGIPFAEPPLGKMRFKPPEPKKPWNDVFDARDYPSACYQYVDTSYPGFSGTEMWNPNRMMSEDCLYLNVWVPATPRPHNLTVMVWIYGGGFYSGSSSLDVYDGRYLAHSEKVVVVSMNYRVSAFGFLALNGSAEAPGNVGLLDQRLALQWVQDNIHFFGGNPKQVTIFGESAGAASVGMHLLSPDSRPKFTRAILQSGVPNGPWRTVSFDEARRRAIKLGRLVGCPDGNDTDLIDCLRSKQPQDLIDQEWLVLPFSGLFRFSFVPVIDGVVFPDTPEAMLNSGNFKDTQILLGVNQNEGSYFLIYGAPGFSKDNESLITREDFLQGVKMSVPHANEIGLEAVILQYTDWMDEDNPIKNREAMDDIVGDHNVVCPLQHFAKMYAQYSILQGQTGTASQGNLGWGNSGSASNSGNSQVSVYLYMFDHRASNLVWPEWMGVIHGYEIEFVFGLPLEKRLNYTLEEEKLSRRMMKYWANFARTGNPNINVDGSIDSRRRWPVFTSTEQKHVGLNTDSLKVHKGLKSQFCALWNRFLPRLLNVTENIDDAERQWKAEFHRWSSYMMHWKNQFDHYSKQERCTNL
SMILES,IC50 [1] [µM],inhibition [2] [%],IC50 [3] [µM],inhibition [4] [%],Activity [5],inhibition [6] [%],Activity [7],Activity [8],Activity [9],Activity [10],Activity [11],Activity [12],Activity [13]
O=C(/C=C/c1ccc(O)c(O)c1)NCC(O)CNc1c2c(nc3cc(Cl)ccc13)CCCC2 (stereo not given),0.15,13.1,0.36,53.2,Active,9.2,Toxic,Active,–,–,–,–,–
COc1cc(/C=C/C(=O)NCC(O)CNc2c3c(nc4ccccc24)CCCC3)ccc1O (stereo not given),0.03,15,0.31,46.3,–,8.4,–,–,inactive,Non-toxic,–,–,–
COc1cc(/C=C/C(=O)NCC(O)CNc2c3c(nc4cc(Cl)ccc24)CCCC3)ccc1O (stereo not given),0.02,2.57,0.71,48.9,–,13.5,Toxic,–,inactive,–,–,–,–
O=C(CCCCC1CCSS1)NCC(O)CNc1c2c(nc3ccccc13)CCCC2 (stereo not given),0.1,24.8,1.18,–,–,–,–,–,–,–,Active,Toxic,–
O=C(/C=C/c1ccc(O)c(O)c1)NCC(O)CNc1c2c(nc3ccccc13)CCCC2 (stereo not given),0.7,10.5,1.01,49.8,–,12.8,–,–,inactive,Non-toxic,–,–,–
O=C(CCCCC1CCSS1)NCC(O)CNc1c2c(nc3cc(Cl)ccc13)CCCC2 (stereo not given),0.04,46.8,1.03,–,–,–,–,–,–,–,Active,Toxic,Toxic
